Measurements reported in publication PMC3859608, “C-Terminus of the B-Chain of Relaxin-3 Is Important for Receptor Activity” (PLoS ONE, 2013).
Entries after “also recorded” stand apart in the source; their conditions may differ.

What was measured:
RXFP3 [1] = target: T1, RXFP3 (Homo sapiens, UniProt Q9NSD7); details: in presence of orthosteric agonist; H3 amide or H3 acid; cited from earlier work
T1 construct: expressed in transfected cells
T1 sequence (Q9NSD7 1-469): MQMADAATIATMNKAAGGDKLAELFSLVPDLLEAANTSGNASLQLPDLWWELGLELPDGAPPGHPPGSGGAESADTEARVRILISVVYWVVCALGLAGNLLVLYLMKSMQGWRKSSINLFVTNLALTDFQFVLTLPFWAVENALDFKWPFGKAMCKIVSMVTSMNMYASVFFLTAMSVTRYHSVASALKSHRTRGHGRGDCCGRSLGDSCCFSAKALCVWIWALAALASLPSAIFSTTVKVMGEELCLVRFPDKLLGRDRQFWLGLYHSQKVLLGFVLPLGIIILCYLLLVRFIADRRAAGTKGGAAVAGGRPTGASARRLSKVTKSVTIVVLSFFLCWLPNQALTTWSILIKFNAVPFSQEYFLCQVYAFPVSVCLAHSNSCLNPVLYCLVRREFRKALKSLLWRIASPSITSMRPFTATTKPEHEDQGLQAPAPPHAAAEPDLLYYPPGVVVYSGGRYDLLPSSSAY
Description: In this endeavour, a small molecule, 135PAM1, has recently been discovered by Alvarez-Jaimes et al. They reported that it was an allosteric modulator of RXFP3 that worked in the presence of an orthosteric agonist, H3 relaxin.

RXFP3 [2] = target: T1, RXFP3; experiment: Competition binding, Eu-labelled I5/R3, CHO-K1 cells expressing RXFP3; details: CHO-K1 cells stably expressing RXFP3; Eu-I5/R3 0.5 nM; one site competition fit; mean ± SEM, n in parentheses in cell (3; H3 amide 4), triplicate determinations; ** p<0.01 vs H3 acid (H3 amide, H3 A-acid); read-out: RXFP3 Eu-H3/I5 pKi (converted)
Description: (§1) The receptor binding affinity of the peptides was measured using CHO-K1 cells stably expressing RXFP3 and RXFP4. The competition binding assays were carried out as previously described, [27]. Briefly, a single concentration of Eu-labelled I5/R3 (0.5 nM) or Eu-labelled mouse INSL5 (2.5 nM) were used in presence of increasing concentration of peptides. The data were analyzed using GraphPad PRISM 5 (GraphPad Inc., San Diego, USA). The europium binding curves were fitted to a one site competition curve and the pKi values were expressed as the mean ± SEM of at least three independent experiments with triplicate determinations within each assay.
(§2) Figure 2 Receptor binding affinity (pKi) and cAMP activity (pEC-50) curves of H3 relaxin and its variants at RXFP3. A) Competition binding curves of H3 relaxin variants using a single concentration of Eu-I5/R3 (0.5 nM) in the presence of increasing concentrations of the H3 relaxin peptides. B) RXFP3 activation curves of H3 relaxin variants measured in a cAMP activity assay in the presence of 5 µM forskolin. The data were expressed as mean ± SEM. from at least three independent experiments.

RXFP3 [3] = target: T1, RXFP3; experiment: cAMP activity (inhibition of forskolin-induced cAMP), CHO-K1 cells expressing RXFP3; assay type: cell-based; details: CHO-K1 RXFP3, pCRE-β-galactosidase reporter; forskolin 1 µM (method) / 5 µM (Fig. 2 legend); peptide 0.01 nM – 1 µM; mean ± SEM, n = 3, triplicate determinations; ** p<0.01 vs H3 acid (H3 amide, H3 A-acid); read-out: RXFP3 cAMP pEC50 (converted)
Description: (§3) The ability of the peptides to activate the receptors RXFP3/RXFP4 was assessed by measuring their influence on cAMP signalling in CHO-K1 cells stably expressing RXFP3 or RXFP4 transfected with a pCRE-β-galactosidase reporter gene construct as previously described. A single concentration of forskolin was used to stimulate cAMP signalling in cells expressing RXFP3 (1 µM) and RXFP4 (5 µM) and peptide induced inhibition of cAMP signalling was measured by adding increasing concentrations of the peptides (0.01 nM – 1 µM). The ability of the peptides to inhibit forskolin-induced cAMP response (pEC50) was measured and expressed as mean ± SEM from three independent experiments with triplicate determinations within each assay. The inhibition curves were fitted to a single-site sigmoidal dose-response curve with variable slope using Graphpad PRISM 5.
as §2

RXFP4 [4] = target: T2, RXFP4 (Homo sapiens, UniProt Q8TDU9); experiment: Competition binding, Eu-labelled mouse INSL5, CHO-K1 cells expressing RXFP4; details: CHO-K1 cells stably expressing RXFP4; Eu-labelled mouse INSL5 2.5 nM; one site competition fit; mean ± SEM, n = 3, triplicate determinations; vs H3 acid: * H3 amide, ** p<0.01 H3 A-acid; read-out: RXFP4 Eu-INSL5 pKi (converted)
T2 construct: expressed in transfected cells
T2 sequence (Q8TDU9 whole entry, species assumed): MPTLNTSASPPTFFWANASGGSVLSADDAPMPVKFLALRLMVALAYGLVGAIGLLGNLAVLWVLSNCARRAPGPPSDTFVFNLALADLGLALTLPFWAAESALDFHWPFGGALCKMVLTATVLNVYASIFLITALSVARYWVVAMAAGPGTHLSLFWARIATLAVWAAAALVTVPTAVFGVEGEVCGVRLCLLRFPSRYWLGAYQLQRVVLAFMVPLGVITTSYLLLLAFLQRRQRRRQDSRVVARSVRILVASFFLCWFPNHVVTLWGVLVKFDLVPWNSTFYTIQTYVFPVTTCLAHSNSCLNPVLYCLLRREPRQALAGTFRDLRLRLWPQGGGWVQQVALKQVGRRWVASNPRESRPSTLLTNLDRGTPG
Description: as §1
(§4) Figure 3 Receptor binding affinity (pKi) and cAMP activity (pEC-50) curves of H3 relaxin and its variants at RXFP4. A) Competition binding curves of H3 relaxin variants at RXFP4 using a single concentration of Eu-INSL5 (2.5 nM) in the presence of increasing concentrations of the H3 relaxin peptides. B) RXFP4 activation curves of H3 relaxin variants measured in a cAMP activity assays in the presence of 1 µM forskolin. The data were expressed as mean ± SEM from at least three independent experiments.

RXFP4 [5] = target: T2, RXFP4; experiment: cAMP activity (inhibition of forskolin-induced cAMP), CHO-K1 cells expressing RXFP4; assay type: cell-based; details: CHO-K1 RXFP4, pCRE-β-galactosidase reporter; forskolin 5 µM (method) / 1 µM (Fig. 3 legend); peptide 0.01 nM – 1 µM; mean ± SEM, n = 3, triplicate determinations; vs H3 acid: * H3 amide, ** p<0.01 H3 A-acid; read-out: RXFP4 cAMP pEC50 (converted)
Description: as §3, §4

RXFP1 = details: cited from earlier work
Description: (§5) It is a neuropeptide that is primarily expressed in the brain with the highest level detected in the nucleus incertus (NI) of the mouse, [8], rat, macaque and human. Neurons from the NI project to many regions of the brain where its distribution overlaps w ...

RXFP3 [6] = target: T1, RXFP3; details: cited from earlier work
Description: as §5

RXFP4 [7] = target: T2, RXFP4; details: sentence cites ref 7; cited from earlier work
Description: as §5

RXFP4 [8] = target: T2, RXFP4; details: both A and B chain C-termini amidated vs acid; cited from earlier work
Description: Relaxin-3 is closely related to insulin-like peptide 5 (INSL5) as they both belong to the same branch in the phylogenetic tree of the relaxin family. In addition, the native receptors of relaxin-3 and INSL5, RXFP3 and RXFP4 respectively, belong to the same class of G-protein coupled receptors. On the basis of such close relationship between ligands (relaxin-3 and INSL5) and receptors (RXFP3 and RXFP4), it is most likely that relaxin-3 interacts with RXFP3 in a similar way to INSL5 interaction with RXFP4. Therefore, we tested all four H3 relaxin analogues on RXFP4. As expected, the H3 acid pept ... || The bioactivity of many polypeptide hormones often requires a form of post-translational modification of their precursors. An example of a widespread modification is C-terminal amidation which often leads to an increase in bioactivity of peptides [32]–[35]. In some cases, amidation of the C-terminus has been reported to have detrimental effect on the activity of peptides, [36]. […] In the case of relaxin family peptides, H2 relaxin and INSL3, both p ...

## COc1ccc2[nH]cc(CCN(Cc3ccc(Cl)c(Cl)c3)C(=O)Nc3cc(C(F)(F)F)cc(C(F)(F)F)c3)c2c1 [135PAM1]
RXFP3 [1]
  allosteric activity of 135PAM1, dependence on H3 relaxin C-terminus: active only when used with the non-native amidated form of H3 relaxin; also recorded: unable to act in the presence of the native form (acid) of H3 relaxin

## CC[C@H](C)[C@@H]1NC(=O)[C@H](Cc2ccccc2)NC(=O)[C@H](CCC(=O)O)NC(=O)[C@H](CCCNC(=N)N)NC(=O)CNC(=O)[C@@H](NC(=O)[C@H](CC(C)C)NC(=O)[C@H](CCCNC(=N)N)NC(=O)[C@@H](NC(=O)CNC(=O)[C@H](Cc2ccc(O)cc2)NC(=O)[C@@H]2CCCN2C(=O)[C@H](C)NC(=O)[C@H](C)NC(=O)[C@@H](N)CCCNC(=N)N)C(C)C)CSSC[C@@H]2NC(=O)[C@@H](NC(=O)[C@H](CO)NC(=O)[C@H](CO)NC(=O)[C@H](CO)NC(=O)[C@H](CC(C)C)NC(=O)CNC(=O)[C@H](C)NC(=O)[C@H](CC(C)C)NC(=O)[C@@H](NC(=O)[C@@H](N)CC(=O)O)C(C)C)CSSC[C@H](NC(=O)CNC(=O)[C@H](Cc3c[nH]c4ccccc34)NC(=O)[C@H](CCCCN)NC2=O)C(=O)N[C@@H](CO)C(=O)N[C@@H](CCCCN)C(=O)N[C@@H](CO)C(=O)N[C@@H](CCC(=O)O)C(=O)N[C@@H]([C@@H](C)CC)C(=O)N[C@@H](CO)C(=O)N[C@@H](CO)C(=O)N[C@@H](CC(C)C)C(=O)N[C@H](C(N)=O)CSSC[C@@H](C(=O)NCC(=O)NCC(=O)N[C@@H](CO)C(=O)N[C@@H](CCCNC(=N)N)C(=O)N[C@@H](Cc2c[nH]c3ccccc23)C(N)=O)NC(=O)[C@H]([C@@H](C)O)NC(=O)[C@H](Cc2ccccc2)NC(=O)[C@H]([C@@H](C)CC)NC(=O)[C@H](C(C)C)NC(=O)[C@H](C)NC(=O)[C@H](CCCNC(=N)N)NC1=O [H3 amide]
RXFP3 [2]
  Ki: 0.158 µM
RXFP3 [3]
  EC50: 0.00724 µM
RXFP4 [4]
  Ki: 0.0398 µM
RXFP4 [5]
  EC50: 0.00417 µM

## H3 relaxin: neuropeptide with two chains (A and B) connected by three disulfide bonds
RXFP1
  interaction with RXFP1: with high affinity
RXFP3 [6]
  binding and activation of RXFP3: binds and activates its cognate receptor
RXFP4 [7]
  interaction with RXFP4: with high affinity

## INSL5: insulin-like peptide 5; native ligand of RXFP4 (Insulin-like peptide INSL5 B … KESVRLCGLEYIRTVIYICASSRW; Insulin-like peptide INSL5 A … QDLQTLCCTDGCSMTDLSALC; UniProt Q9Y5Q6 23-46; Q9Y5Q6 115-135, looked up)
RXFP4 [8]
  C-terminus requirement for RXFP4 activity of INSL5: need to be an acid for full RXFP4 activity; also recorded: C-termini were required to be free (acid) for high RXFP4 activity
